Source: paper PMC5433425 (PeerJ, 2017)
Values after ≈ are worked out from the molar mass of the structure shown. Like-named read-outs stand apart in the source and are kept apart here.

Tests used:
[1] = system: E. coli AG100A (AcrAB pump-deficient); assay: MIC, broth microdilution; format: cell-based, Escherichia coli; conditions: Escherichia coli
[2] = system: E. coli AG100tet (AcrAB overexpressing); assay: MIC, broth microdilution; format: cell-based, Escherichia coli; conditions: Escherichia coli
E. coli AG100A [3] = assay: microbe, parasite or virus in culture; format: cell-based, Escherichia coli; conditions: Escherichia coli, AG100A, read-out: MIC without efflux inhibitor
Protocol: The minimum inhibitory concentrations (MICs) were determined using the broth microdilution method according to the CLSI guidelines ([Clinical and Laboratory Standards Institute, 2014]). […] Two-fold serial dilutions of the compounds were made to achieve the following concentrations: 320 µM–40 µM. The MICs were determined as the lowest concentration at which no visible growth was observed after 18 h of incubation at 37 °C. The assays were performed in triplicate and the MIC value was given as result of at least two concordant values.

E. coli AG100tet [4] = assay: microbe, parasite or virus in culture; format: cell-based, Escherichia coli; conditions: Escherichia coli, AG100TET, read-out: MIC without efflux inhibitor, AG100tet; inhibitor 0 μM
Protocol: (§1) The assays were performed in triplicate and the MIC value was given as result of at least two concordant values.

[5] = system: E. coli K-12 AG100 (wild-type); assay: MIC, broth microdilution; format: cell-based; conditions: Escherichia coli
E. coli AG100 [6] = assay: Checkerboard synergy assay (MIC of antibiotics/EtBr with efflux inhibitor); format: cell-based, Escherichia coli; conditions: Escherichia coli
Protocol: as §1

E. coli AG100A [7] = conditions: AG100A
E. coli AG100 [8] = assay: EtBr accumulation by real-time fluorometry
E. coli AG100tet [9] = assay: EtBr accumulation by real-time fluorometry; conditions: AG100tet
E. coli AG100 [10] = assay: Membrane potential assay (BacLight, DiOC2(3)); conditions: positive control 156 µM (half MIC)

## CN(C)[C@@H]1C(O)=C(C(N)=O)C(=O)[C@@]2(O)C(O)=C3C(=O)c4c(O)cccc4[C@@](C)(O)[C@H]3C[C@@H]12 [TET, tetracycline]
[1]
  MIC: 0.5 µg/mL (≈ 1.13 µM)
[2]
  MIC: 64 µg/mL (≈ 144 µM)
E. coli AG100A [3]
  MIC: 0.5 µg/mL (≈ 1.13 µM)
E. coli AG100tet [4]
  MIC: 64 µg/mL (≈ 144 µM)

## CC[n+]1c(-c2ccccc2)c2cc(N)ccc2c2ccc(N)cc21 [EtBr, ethidium bromide]
[5]
  MIC: 200 µg/mL
[1]
  MIC: 3.12 µg/mL
[2]
  MIC: 512 µg/mL
E. coli AG100 [6]; AG100, read-out: MIC without efflux inhibitor
  MIC: 200 µg/mL
E. coli AG100A [3]
  MIC: 3.12 µg/mL
E. coli AG100tet [4]
  MIC: 512 µg/mL
E. coli AG100A [7]
  equilibrium concentration (influx equals efflux): 0.25 µg/mL
E. coli AG100 [8]; AG100
  equilibrium concentration (influx equals efflux): 1 µg/mL
E. coli AG100 [8]; EtBr 0.5 µg/ml, cycle 1
  EtBr fluorescence: 3.237
E. coli AG100 [8]; EtBr 0.5 µg/ml, cycle 7
  EtBr fluorescence: 3.883
E. coli AG100 [8]; EtBr 0.5 µg/ml, cycle 8
  EtBr fluorescence: 4.039
E. coli AG100 [8]; EtBr 0.5 µg/ml, cycle 9
  EtBr fluorescence: 4.222
E. coli AG100 [8]; EtBr 0.5 µg/ml, cycle 10
  EtBr fluorescence: 4.226
E. coli AG100 [8]; EtBr 0.5 µg/ml, cycle 11
  EtBr fluorescence: 4.3568
E. coli AG100 [8]; EtBr 0.5 µg/ml, cycle 12
  EtBr fluorescence: 4.419
E. coli AG100 [8]; EtBr 0.5 µg/ml, cycle 13
  EtBr fluorescence: 4.6831
E. coli AG100 [8]; EtBr 0.5 µg/ml, cycle 14
  EtBr fluorescence: 4.514
E. coli AG100 [8]; EtBr 0.5 µg/ml, cycle 15
  EtBr fluorescence: 4.795
E. coli AG100 [8]; EtBr 0.5 µg/ml, cycle 16
  EtBr fluorescence: 4.926
E. coli AG100 [8]; EtBr 0.5 µg/ml, cycle 17
  EtBr fluorescence: 4.878
E. coli AG100 [8]; EtBr 0.5 µg/ml, cycle 18
  EtBr fluorescence: 4.912
E. coli AG100 [8]; EtBr 0.5 µg/ml, cycle 19
  EtBr fluorescence: 5.122
E. coli AG100 [8]; EtBr 0.5 µg/ml, cycle 20
  EtBr fluorescence: 5.073
E. coli AG100 [8]; EtBr 0.5 µg/ml, cycle 21
  EtBr fluorescence: 5.194
E. coli AG100 [8]; EtBr 0.5 µg/ml, cycle 22
  EtBr fluorescence: 5.233
E. coli AG100 [8]; EtBr 0.5 µg/ml, cycle 23
  EtBr fluorescence: 5.309
E. coli AG100 [8]; EtBr 0.5 µg/ml, cycle 24
  EtBr fluorescence: 5.461
E. coli AG100 [8]; EtBr 0.5 µg/ml, cycle 25
  EtBr fluorescence: 5.593
E. coli AG100 [8]; EtBr 0.5 µg/ml, cycle 26
  EtBr fluorescence: 5.584
E. coli AG100 [8]; EtBr 0.5 µg/ml, cycle 27
  EtBr fluorescence: 5.69
E. coli AG100 [8]; EtBr 0.5 µg/ml, cycle 28
  EtBr fluorescence: 5.64
E. coli AG100 [8]; EtBr 0.5 µg/ml, cycle 29
  EtBr fluorescence: 5.6965
E. coli AG100 [8]; EtBr 0.5 µg/ml, cycle 30
  EtBr fluorescence: 5.739
E. coli AG100 [8]; EtBr 1 µg/ml, cycle 1
  EtBr fluorescence: 4.697
E. coli AG100 [8]; EtBr 1 µg/ml, cycle 2
  EtBr fluorescence: 4.852
E. coli AG100 [8]; EtBr 1 µg/ml, cycle 3
  EtBr fluorescence: 5.005
E. coli AG100 [8]; EtBr 1 µg/ml, cycle 4
  EtBr fluorescence: 5.143
E. coli AG100 [8]; EtBr 1 µg/ml, cycle 5
  EtBr fluorescence: 5.505
E. coli AG100 [8]; EtBr 1 µg/ml, cycle 6
  EtBr fluorescence: 5.767
E. coli AG100 [8]; EtBr 1 µg/ml, cycle 7
  EtBr fluorescence: 5.841
E. coli AG100 [8]; EtBr 1 µg/ml, cycle 8
  EtBr fluorescence: 6.0562
E. coli AG100 [8]; EtBr 1 µg/ml, cycle 9
  EtBr fluorescence: 6.088
E. coli AG100 [8]; EtBr 1 µg/ml, cycle 10
  EtBr fluorescence: 6.339
E. coli AG100 [8]; EtBr 1 µg/ml, cycle 11
  EtBr fluorescence: 6.446
E. coli AG100 [8]; EtBr 1 µg/ml, cycle 12
  EtBr fluorescence: 6.666
E. coli AG100 [8]; EtBr 1 µg/ml, cycle 13
  EtBr fluorescence: 6.748
E. coli AG100 [8]; EtBr 1 µg/ml, cycle 14
  EtBr fluorescence: 6.978
E. coli AG100 [8]; EtBr 1 µg/ml, cycle 15
  EtBr fluorescence: 7.028
E. coli AG100 [8]; EtBr 1 µg/ml, cycle 16
  EtBr fluorescence: 7.227
E. coli AG100 [8]; EtBr 1 µg/ml, cycle 17
  EtBr fluorescence: 7.381
E. coli AG100 [8]; EtBr 1 µg/ml, cycle 18
  EtBr fluorescence: 7.326
E. coli AG100 [8]; EtBr 1 µg/ml, cycle 19
  EtBr fluorescence: 7.434
E. coli AG100 [8]; EtBr 1 µg/ml, cycle 20
  EtBr fluorescence: 7.666
E. coli AG100 [8]; EtBr 1 µg/ml, cycle 21
  EtBr fluorescence: 7.737
E. coli AG100 [8]; EtBr 1 µg/ml, cycle 22
  EtBr fluorescence: 7.695
E. coli AG100 [8]; EtBr 1 µg/ml, cycle 23
  EtBr fluorescence: 7.798
E. coli AG100 [8]; EtBr 1 µg/ml, cycle 24
  EtBr fluorescence: 7.86
E. coli AG100 [8]; EtBr 1 µg/ml, cycle 25
  EtBr fluorescence: 7.955
E. coli AG100 [8]; EtBr 1 µg/ml, cycle 26
  EtBr fluorescence: 7.794
E. coli AG100 [8]; EtBr 1 µg/ml, cycle 27
  EtBr fluorescence: 7.948
E. coli AG100 [8]; EtBr 1 µg/ml, cycle 28
  EtBr fluorescence: 8.04
E. coli AG100 [8]; EtBr 1 µg/ml, cycle 29
  EtBr fluorescence: 8.111
E. coli AG100 [8]; EtBr 1 µg/ml, cycle 30
  EtBr fluorescence: 8.205
E. coli AG100 [8]; EtBr 2 µg/ml, cycle 1
  EtBr fluorescence: 9.029
E. coli AG100 [8]; EtBr 2 µg/ml, cycle 2
  EtBr fluorescence: 9.296
E. coli AG100 [8]; EtBr 2 µg/ml, cycle 3
  EtBr fluorescence: 9.71
E. coli AG100 [8]; EtBr 2 µg/ml, cycle 4
  EtBr fluorescence: 9.991
E. coli AG100 [8]; EtBr 2 µg/ml, cycle 5
  EtBr fluorescence: 10.2954
E. coli AG100 [8]; EtBr 2 µg/ml, cycle 12
  EtBr fluorescence: 12.653
E. coli AG100 [8]; EtBr 2 µg/ml, cycle 13
  EtBr fluorescence: 13.0282
E. coli AG100 [8]; EtBr 2 µg/ml, cycle 14
  EtBr fluorescence: 13.3381
E. coli AG100 [8]; EtBr 2 µg/ml, cycle 15
  EtBr fluorescence: 13.5191
E. coli AG100 [8]; EtBr 2 µg/ml, cycle 16
  EtBr fluorescence: 13.6733
E. coli AG100 [8]; EtBr 2 µg/ml, cycle 17
  EtBr fluorescence: 14.0513
E. coli AG100 [8]; EtBr 2 µg/ml, cycle 18
  EtBr fluorescence: 14.1241
E. coli AG100 [8]; EtBr 2 µg/ml, cycle 19
  EtBr fluorescence: 14.4449
E. coli AG100 [8]; EtBr 2 µg/ml, cycle 20
  EtBr fluorescence: 14.643
E. coli AG100 [8]; EtBr 2 µg/ml, cycle 21
  EtBr fluorescence: 14.9287
E. coli AG100 [8]; EtBr 2 µg/ml, cycle 22
  EtBr fluorescence: 15.1966
E. coli AG100 [8]; EtBr 2 µg/ml, cycle 23
  EtBr fluorescence: 15.196
E. coli AG100 [8]; EtBr 2 µg/ml, cycle 24
  EtBr fluorescence: 15.3241
E. coli AG100 [8]; EtBr 2 µg/ml, cycle 25
  EtBr fluorescence: 15.6489
E. coli AG100 [8]; EtBr 2 µg/ml, cycle 26
  EtBr fluorescence: 15.801
E. coli AG100 [8]; EtBr 2 µg/ml, cycle 27
  EtBr fluorescence: 15.8722
E. coli AG100 [8]; EtBr 2 µg/ml, cycle 28
  EtBr fluorescence: 16.0341
E. coli AG100 [8]; EtBr 2 µg/ml, cycle 29
  EtBr fluorescence: 16.3924
E. coli AG100 [8]; EtBr 2 µg/ml, cycle 30
  EtBr fluorescence: 16.548
E. coli AG100tet [9]
  equilibrium concentration (influx equals efflux): 2 µg/mL

## Cc1onc(-c2ccccc2)c1C(=O)N[C@@H]1C(=O)N2[C@@H]1SC(C)(C)[C@@H]2C(=O)O [OXA, oxacillin]
[5]; E. coli AG100 wild-type, read-out: MIC
  MIC: 512 µg/mL (≈ 1280 µM)
[1]
  MIC: 2 µg/mL (≈ 4.98 µM)
[2]
  MIC: > 2050 µg/mL
E. coli AG100 [6]; AG100, AG100, inhibitor 0 μM, read-out: MIC without efflux inhibitor
  MIC: 512 µg/mL
E. coli AG100A [3]
  MIC: 2 µg/mL (≈ 4.98 µM)
E. coli AG100tet [4]
  MIC: > 2050 µg/mL

## N#CC(C#N)=NNc1cccc(Cl)c1 [CCCP, carbonyl cyanide-m-chlorophenylhydrazone]
E. coli AG100 [10]
  percentage of depolarized cells (membrane potential collapse): over 95%
